Values of other authors as cited in US10112962B2, “Boron-based prodrug strategy for increased bioavailability and lower-dosage requirements for drug molecules containing at least one phenol (or aromatic hydroxyl) group” (XAVIER UNIVERSITY OF LOUISIANA, priority 2014, dated 2018).

What was measured:
[1] = literature statement
[2] = literature statement; remark: listed apart in the source

| oral bioavailability [1] | water solubility [2] | Compound |
| --- | --- | --- |
| poor oral bioavailability | – | C[C@]12CC[C@@H]3c4ccc(O)cc4C[C@@H](CCCCCCCCC[S+]([O-])CCCC(F)(F)C(F)(F)F)[C@H]3[C@@H]1CC[C@@H]2O (stereo partly shown) [Fulvestrant] |
| low oral bioavailability | poor water solubility | O=C(Nc1ccc([N+](=O)[O-])cc1Cl)c1cc(Cl)ccc1O [niclosamide, Niclosamide] |
| poor bioavailability | – | O=C(c1ccc(OCCN2CCCCC2)cc1)c1c(-c2ccc(O)cc2)sc2cc(O)ccc12 [raloxifen, Raloxifene] |
